Laboratory results as given in ChEMBL document CHEMBL1144080, “Antihyperglycemic sesquiterpenes from Psacalium decompositum” (1999).

Legend:
Format in all cases: functional
Mus musculus [1] = test: Antihyperglycemic activity in C57BL-6J ob/ob mouse type 2 diabetic model assessed as body weight per mouse at 1000 mg/kg, po administered as single dose for 24 hrs
Mus musculus [2] = test: Antihyperglycemic activity in C57BL-6J ob/ob mouse type 2 diabetic model assessed as food intake per mouse at 1.09 mmol/kg, po administered as single dose
Mus musculus [3] = test: Antihyperglycemic activity in C57BL-6J ob/ob mouse type 2 diabetic model assessed as body weight per mouse at 1.09 mmol/kg, po administered as single dose for 24 hrs
Mus musculus [4] = test: Antihyperglycemic activity in C57BL-6J ob/ob mouse type 2 diabetic model assessed as changes in plasma glucose level at 1.09 mmol/kg, po administered as single dose for 3 hrs
Mus musculus [5] = test: Antihyperglycemic activity in C57BL-6J ob/ob mouse type 2 diabetic model assessed as changes in plasma glucose level at 1.09 mmol/kg, po administered as single dose for 24 hrs
Mus musculus [6] = test: Antihyperglycemic activity in C57BL-6J ob/ob mouse type 2 diabetic model assessed as changes in plasma glucose level at 1000 mg/kg, po administered as single dose for 24 hrs
Mus musculus [7] = test: Antihyperglycemic activity in C57BL-6J ob/ob mouse type 2 diabetic model assessed as changes in plasma glucose level at 1000 mg/kg, po administered as single dose for 3 hrs
Mus musculus [8] = test: Antihyperglycemic activity in C57BL-6J ob/ob mouse type 2 diabetic model assessed as food intake per mouse at 1000 mg/kg, po administered as single dose
Mus musculus [9] = test: Antihyperglycemic activity in C57BL-6J ob/ob mouse type 2 diabetic model assessed as changes in plasma glucose level at 1.5 mmol/kg, po administered as single dose for 3 hrs
Mus musculus [10] = test: Antihyperglycemic activity in C57BL-6J ob/ob mouse type 2 diabetic model assessed as body weight per mouse at 1.5 mmol/kg, po administered as single dose for 24 hrs
Mus musculus [11] = test: Antihyperglycemic activity in C57BL-6J ob/ob mouse type 2 diabetic model assessed as changes in plasma glucose level at 1.5 mmol/kg, po administered as single dose for 24 hrs
Mus musculus [12] = test: Antihyperglycemic activity in C57BL-6J ob/ob mouse type 2 diabetic model assessed as food intake per mouse at 1.5 mmol/kg, po administered as single dose

Cc1coc2c(O)c3c(c(C)c12)[C@@H](C)CCC3 [CACALOL]
Activity (Mus musculus [1]): 45 g | Activity (Mus musculus [2]): 4.1 g | Activity (Mus musculus [3]): 43.5 g | Activity (Mus musculus [4]): -124 mg/dL | Activity (Mus musculus [5]): 48.3 mg/dL | Activity (Mus musculus [6]): -13.4 mg/dL | Activity (Mus musculus [7]): -105.1 mg/dL | Activity (Mus musculus [8]): 4.6 g

Cc1coc2c1[C@](C)(O)C1=C(CCC[C@@H]1C)C2=O [CACALONE]
Activity (Mus musculus [1]): 45 g | Activity (Mus musculus [2]): 4.8 g | Activity (Mus musculus [3]): 41.4 g | Activity (Mus musculus [4]): -3 mg/dL | Activity (Mus musculus [5]): 29.5 mg/dL | Activity (Mus musculus [6]): -13.4 mg/dL | Activity (Mus musculus [7]): -105.1 mg/dL | Activity (Mus musculus [8]): 4.6 g

Cc1coc2c1[C@@](C)(O)C1=C(CCC[C@@H]1C)C2=O [EPICACALONE]
Activity (Mus musculus [1]): 45 g | Activity (Mus musculus [2]): 4 g | Activity (Mus musculus [3]): 43.3 g | Activity (Mus musculus [4]): -42.4 mg/dL | Activity (Mus musculus [5]): 30.9 mg/dL | Activity (Mus musculus [6]): -13.4 mg/dL | Activity (Mus musculus [7]): -105.1 mg/dL | Activity (Mus musculus [8]): 4.6 g

CN(C)C(=N)NC(=N)N [METFORMIN]
Activity (Mus musculus [9]): -151.8 mg/dL | Activity (Mus musculus [10]): 43.2 g | Activity (Mus musculus [11]): 76.1 mg/dL | Activity (Mus musculus [12]): 4.5 g
